# Measured values: US6743446B2, “Methods for stabilizing biologically active agents encapsulated in biodegradable controlled-release polymers” (The Ohio State University Research Foundation, priority 1999, dated 2004)
# Where “and” joins values, the source holds several entries; their conditions need not be identical. Equal values may be shown once. Where a name gives a salt, the structure may show the parent alone. Read-outs that look alike come from different tables or passages of the source.
# Assays:
# [1] = pH measurement of saturated basic salts in water; assay type: physicochemical; details: excess basic salt suspended in water, 37° C., 7 days
# Method: The suspension was then incubated at 37° C. for 7 days. The pH of the supernatant was determined with a Corning 430 pH meter (Corning Inc., NY).
# [2] = pH of saturated basic salt suspension after addition of 1 N HCl; assay type: physicochemical; details: acid added to the saturated suspension with excess salt, 37° C., 3 days
# Excerpt: The difference of the neutralization effect from the salts is also reflected in the different water contents of their PLGA devices.
# [3] = pH of the release medium during incubation of polymer devices; assay type: physicochemical; details: 3% BSA/PLGA50/50 (0.20 dl/g) microspheres with 3% base, after 35 days
# Excerpt: This effect was confirmed by changes in pH in the release medium and alteration of the PLGA degradation rate.
# The pH of the release medium was monitored by a Corning 430 pH meter (Corning Inc., NY) at each sampling interval.
# [4] = reference (23); cited from earlier work
# [5] = VCR and VBL stability and release in PLGA microspheres by HPLC; assay type: physicochemical
# Method: All other reagents and solvents were of analytical grade or purer and purchased from commercial suppliers. Microspheres Preparation Microspheres were prepared by a standard oil-in-oil emulsion-solvent extraction method (17). […] The resulting solution or suspension was added drop-wise to 25 ml of oil (95% cottonseed oil and 5% Span 85 emulsifier) stirred at 500 rpm and room temperature. After 2.5 h of microsphere hardening. 40 ml of petroleum ether (bp: 50 to 100° C.) were added to the emulsion to extract CAN. The emulsion was stirred for additional 15 min, the particles were collected by filtration, and washed 3 times with petroleum ether. The hardened microspheres were flash-frozen with liquid nitrogen and lyophilized with a Labconco Freezone 6 system for 1 day.
# The HPLC system consisted of the following: a 510 pump, a 717 Plus autosampler, and a 486 UV detector (waters, Milford, Mass.). […] The mobile phase was composed of aqueous solution of sodium phosphate (10 mM) and methanol 40:60 (v/v) (pH 7.0). For UV detection, the wavelength was set to 298 nm.
# Drug release from microspheres was carried out in PBS (127 mM NaCl, 3 mM KCl, 8 mM Na2HPO4, 1 mM KH2PO4, pH 7.4) containing Tween 80 (0.02% w/w/) (PBST) at 37° C. under perfect sink conditions. […] Microspheres were weighed and dissolved in a 50% (v/v) ACN water solution. The precipitated polymer and salts were spun down by brief centrifugation. An aliquot of the supernatant containing drug was removed and analyzed by HPLC.
# BSA [6] = molecular target: T1, BSA (Bos taurus, UniProt P02769); test: BSA release and aggregation in W/O/W PLGA microspheres in PBST at 37° C.; assay type: physicochemical, bovine
# T1 construct: purchased Sigma Chemical Co. (St. Louis, Mo.) A-3059
# T1 sequence (P02769 25-607): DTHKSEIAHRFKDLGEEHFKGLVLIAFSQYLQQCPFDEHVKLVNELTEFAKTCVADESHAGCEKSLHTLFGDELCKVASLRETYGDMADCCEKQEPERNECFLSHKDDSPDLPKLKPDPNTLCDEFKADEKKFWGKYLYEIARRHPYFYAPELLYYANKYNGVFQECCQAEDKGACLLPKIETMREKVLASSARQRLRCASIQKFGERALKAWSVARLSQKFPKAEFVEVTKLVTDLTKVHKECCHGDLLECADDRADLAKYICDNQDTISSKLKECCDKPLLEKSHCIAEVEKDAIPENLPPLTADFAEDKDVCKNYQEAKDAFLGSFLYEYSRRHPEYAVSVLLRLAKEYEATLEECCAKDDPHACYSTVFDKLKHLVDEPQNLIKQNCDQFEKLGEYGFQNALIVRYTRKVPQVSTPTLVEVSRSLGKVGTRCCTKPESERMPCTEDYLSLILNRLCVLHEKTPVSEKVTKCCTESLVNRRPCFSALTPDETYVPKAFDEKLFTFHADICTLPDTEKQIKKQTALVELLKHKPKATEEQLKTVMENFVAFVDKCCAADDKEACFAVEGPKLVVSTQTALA
# BSA [7] = molecular target: T1, BSA; test: BSA release and aggregation in PLGA millicylinders incubated in PBST at 37° C.; assay type: physicochemical, bovine
# Method: A solvent extrusion method similar to that used previously by our group for intraocular implants was used to prepare the PLGA cylinders with a diameter on the millimeter scale, which we term millicylinders. Briefly, a uniform suspension of sieved protein powder (<90 μm) with or without basic salt in 50% (w/w) acetone-PLGA 50/50 solution was loaded in a syringe and extruded into a silicone tubing (I.D. 0.8 mm) at about 0.1 ml/min. The solvent extruded suspension was dried at room temperature for 24 h and then dried in a vacuum oven at 45° C. for another 24 h before testing. The protein loading was calculated as the percentage of amount of BSA versus the total weight of mixture (i.e., protein, polymer, and salt).
# Release of protein was carried out in PBST (which consists of PBS (7.74 mM Na2HPO4, 2.26 mM NaH2O4, 137 mM NaCl, and 3 mM KCl, pH 7.4), and 0.02% w/v Tween® 80) at 37° C. under perfect sink conditions. Millicylinders (10×0.8 mm, 5-10 mg or microspheres (about 20 mg) were placed in I ml of the release medium and the medium was replaced at each time point. The protein content was determined by using Coornassie plus protein assay reagent, which is also compatible with denaturing agents (e.g., 6 M urea) and reducing agents (e.g., 10 mM DTT).
# Protein stability was assessed by the percentage of water insoluble non-covalent BSA aggregates generated within the implants versus the initial encapsulated protein. Protein stability within PLGA implants was analyzed as follows: First, millicylinders with a length of 1 cm were incubated under 80% and 96% relative humidity (RH) at 37° C. for 21 days. Then, the polymer was dissolved in acetone and centrifuged to spin down the protein. The remaining protein pellet was washed three times with acetone and then air-dried. The final protein pellet was analyzed as in Analysis of the Protein Extracted from PLGA Implants. The protein remaining in PLGA implants after release in PBST at 37° C. for 28 days was also extracted similarly and analyzed as above.
# The BSA pellet extracted from PLGA implants was first reconstituted in PBST and incubated at 37° C. overnight to determine the soluble protein fraction remaining in the polymer. Any remaining aggregates were collected by centrifugation again, and brought up in the denaturing solvent (PBST/6 M urea/1 mM EDTA) and incubated at 37° C. for 30 mm to dissolve non-covalent bonded BSA aggregates. Then, any final undissolved BSA aggregates were collected again and dissolved in the reducing solvent (the denaturing solvent plus 10 mM DTT) to dissolve any disulfide-bonded aggregates.
# For quantitation of soluble BSA, a modified Bradford assay was used as follows: 10 μl of standard or sample in PBST was added to 250 μl of Coomassle reagent/well on a 96-well plate and then the plate was read at 595 nm using a Dynex MRX microplate reader (Dynex Technology, Inc., Chantilly, Va.). The concentration range of the standard curve was 50 to 1000 μg/ml. For quantitation of non-covalent and covalent BSA aggregates, the solvents used for preparation of standards and samples were 6 M urea and 6 M urea/10 mM DTT, respectively.
# The solvent-extruded suspension was dried at room temperature (24 h) and then dried in a vacuum oven at 45° C. (24 h). For preparation of bFGF millicylinders, bFGF was combined with heparin, sucrose and BSA additives at a weight ratio (additive bFGF) of 1, 180, and 1000, respectively, in 0.5 mM EDTA and 10 mM sodium phosphate buffer (pH 7.4). The solution was lyophilized for 2 days at room temperature using a Labconco Freeze Dry System (Kansas City, Mo.) to a fine powder with 4% moisture (determined by a Karl Fisher Titrator (Model DL 18, Mettler-Toledo Inc., NJ)) and sieved before suspension in PLGA-acetone and extrusion. For preparation of […] millicylinders, solutions of BMP-2 combined with BSA or gum arabic (Sigma, St. Louis, Mo.) were similarly lyophilized and sieved. The millicylinders; were prepared in the same way as for BSA/PLGA millicylinders. […]
# [8] = aqueous solution; cited from earlier work
# BSA [9] = molecular target: T1, BSA; test: Simulation of BSA instability in the polymer microclimate; assay type: physicochemical, bovine; details: Simulated: lyophilized BSA at pH 2 under 86% R.H. at 37° C.
# Method: Three experiments were designed to simulate the potential deleterious conditions in PLGA devices. […] At various times, the protein was reconstituted in PBST and examined for the type of aggregates as described above. To examine the effect of water, water was directly added to lyophilized BSA at pH 2, sealed and then incubated at 37° C. for 1 week, and analyzed as above (16). […] Loss of BSA content from solution was used to determine the extent of BSA adsorption to the polymer.
# Balb/c 3T3 fibroblasts = test: Bioassay for bFGF, cell proliferation (3H-thymidine incorporation); assay type: cell-based; details: bFGF from Mg(OH)2/BSA/heparin PLGA millicylinders, release and residual fraction
# Method: The biological activity of bFGF was determined by a cell proliferation assay (20). Balb/c 3T3 fibroblasts (25,000/well, CCL-163, ATCQ in Dulbecco's modified Eagle's medium (DMEM) containing 10% bovine calf serum, […] were seeded (200 μl/well) on 96-well plates. The cells were grown to confluence for one week without changing the medium. On day 7, bFGF samples or standards (10 μl) in the release medium were added and followed 20 h later by addition of 1 μCi of 3H-thymidine (6.7 Ci/mmol, DuPont/NEN® Research Products, Boston, Mass.) per well. After another 6-8 h, the cells were collected on filter paper by using a PHD TM cell harvester (Cambridge Technology Inc.). The harvested cells were resuspended in 3 ml of scintillation cocktail 3a7OB (Research Products International Corp., IL) and counted (Beckman LS 1701 scintillation counter).
# nude mice = test: In vivo angiogenesis of subcutaneously implanted bFGF devices; details: BSA/Mg(OH)2-containing PLGA formulation implanted subcutaneously, data not shown
# Excerpt: In both cases, a controlled release of protein was observed over 28 days (data not shown) resulting in a recovery (released+soluble residue fraction) of >80% (Table 3). In contrast, when the base was removed from the formulation (18% gum arabic), only 30% protein was recovered by the immunoassay. Therefore, the stability characteristic of BMP-2 in PLGA millicylinders was very similar to that of bFGF (although additional stabilizers were used for bFGF) with and without the addition of the basic additive. For both growth factors, in the absence of basic additive, the protein was released mostly on the first day and only a small amount of protein could be recovered from the polymer after 28 days release. In the presence of the basic salt, both proteins were continuously released with >80% recoverable in the 28-day experiment. Moreover, the in vivo biological activities (angiogenesis in nude mice for the bFGF and osteogenesis in rats for the BMP-2) of the BSA/Mg(OH)2-containing formulations were also confirmed when the devices were implanted subcutaneously (data not shown).
# [10] = reference (31); cited from earlier work
# tPA = tPA (Homo sapiens, UniProt P00750); test: tPA release from PLGA millicylinders by activity analysis; assay type: physicochemical
# tPA, sequence (P00750 36-562): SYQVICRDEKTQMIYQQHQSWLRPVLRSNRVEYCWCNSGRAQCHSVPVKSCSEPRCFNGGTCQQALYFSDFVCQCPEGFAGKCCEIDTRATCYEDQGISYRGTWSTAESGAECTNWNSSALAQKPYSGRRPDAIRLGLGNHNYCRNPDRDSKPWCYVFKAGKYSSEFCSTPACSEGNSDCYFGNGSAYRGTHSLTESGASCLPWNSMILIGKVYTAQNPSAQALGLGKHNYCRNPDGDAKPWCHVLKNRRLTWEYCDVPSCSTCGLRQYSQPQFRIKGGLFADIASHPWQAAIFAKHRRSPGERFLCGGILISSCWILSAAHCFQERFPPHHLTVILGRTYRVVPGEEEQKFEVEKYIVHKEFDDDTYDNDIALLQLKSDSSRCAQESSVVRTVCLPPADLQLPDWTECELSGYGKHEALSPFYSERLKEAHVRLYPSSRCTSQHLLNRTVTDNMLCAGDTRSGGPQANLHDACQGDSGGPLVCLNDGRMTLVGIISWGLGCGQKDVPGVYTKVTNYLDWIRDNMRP
# Method: Here, by using this rationale, tPA was successfully encapsulated into PLGA implants. tPA, a protein with a MW of ˜60 K Da is a tissue type endogenous serine proteaese involved in thrombi dissolution. The FDA has approved the use of recombinant tPA in the treatment of myocardial infarction. Controlled release systems for local delivery was developed by using hydrogel to control wound healing. A multi-drug controlled release implant with tPA encapsulated was also tested for the intraocular management of proliferative vitroretinopahty (PVR). […] Arginine hydrochloride and BSA were added in the release medium to improve the stability of released tPA. The release profile and active residue of tPA after release was evaluated by activity analysis. […] As far as is known, only very few protein formulations have shown continuous and complete release over one month period without losing activity.
compound,measurement,setting,value
[Mg+2].[OH-].[OH-] [Mg(OH)2],pH of saturated solution,[1],9.97 and 9.76
same,pH after addition of 100 μl of 1 N HCl,[2],8.99
same,pH of the release medium,[3],< 4.5
same,pH of saturated solution,[4],9.8
same,drug degraded to the basic product during microsphere preparation,[5]; VCR PLGA microspheres with co-encapsulated base,12%
O=C([O-])[O-].[Mg+2] [MgCO3],pH of saturated solution,[1],9.75
same,pH after addition of 100 μl of 1 N HCl,[2],9.01
same,Released,"BSA [6]; 3% BSA/PLGA50/50 (0.20 dl/g) microspheres, 51-day release in PBST at 37° C.",more than 50%
same,BSA release after the first day burst over 28 days,BSA [6]; 4% BSA/PLGA50/50 (0.64 dl/g) W/O/W microspheres with basic salt,up to 10%
same,burst,"BSA [6]; BSA/PLGA (0.20 dl/g) microspheres, data not shown",32%
same,stabilization of BSA,BSA [7]; PLGA millicylinders,stabilized BSA much better than the Mg(OH)2
"CC[C@]1(O)C[C@H]2CN(CCc3c([nH]c4ccccc34)[C@@](C(=O)OC)(c3cc4c(cc3OC)N(C=O)[C@H]3[C@@](O)(C(=O)OC)[C@H](OC(C)=O)[C@]5(CC)C=CCN6CC[C@]43[C@@H]65)C2)C1 [VCR, Vincristine sulfate]",pH of maximum stability,[8],~4.5
same,stability of encapsulated drug,"[5]; PLGA (50% D,L lactide content) microspheres",becomes unstable
same,drug remaining intact,"[5]; VCR PLGA microspheres with ZnCO3, after 3 weeks",97%
same,drug remaining intact,"[5]; VCR PLGA microspheres with ZnCO3, after 4 weeks",92%
same,drug remained in its native form,"[5]; VCR in PLGA microspheres without base, 14 days incubation at 37° C.",23%
Bovine serum albumin [BSA],non-covalent aggregates,"BSA [6]; BSA in PLGA microspheres by solvent evaporation, no base",25-75%
same,disulfide-bonded aggregates,"BSA [6]; BSA in PLGA microspheres, some control experiments",< 5%
same,Time to 50% aggregation,BSA [9],7 days
same,Aggregates soluble in denaturing solvent,"BSA [9]; PBST with 6M urea, 1 mM EDTA",>94%
same,Peptide fragmentation,BSA [9]; SDS-PAGE,"25, 40, and 55 kDa"
same,initially encapsulated BSA that formed non-covalent aggregates,"BSA [7]; 15% BSA/PLGA implants without base, 2 weeks release in PBST at 37° C., previous results",more than 60%
same,Aggregates soluble in denaturing solvent,"BSA [7]; Encapsulated: 15% BSA in PLGA millicylinders in PBST at 37° C., PBST with 6M urea, 1 mM EDTA",>98%
same,Peptide fragmentation,"BSA [7]; Encapsulated: 15% BSA in PLGA millicylinders in PBST at 37° C., SDS-PAGE","25, 40, and 55 kDa"
same,Time to 50% aggregation,BSA [7]; Encapsulated: 15% BSA in PLGA millicylinders incubated in PBST at 37° C.,12 days
same,protein released in 1 day,"BSA [7]; PLGA millicylinders, 20% BSA loading without the base",> 90%
bFGF: recombinant human basic fibroblast growth factor,bFGF bioactive over the entire release interval,Balb/c 3T3 fibroblasts,65-85%
same,"in vivo biological activity, angiogenesis",nude mice,confirmed
same,in vivo serum half-life,[10],< 3 min
"tPA: tissue type endogenous serine protease, encapsulated as 10% tPA powder in PLGA millicylinders",one month release of tPA,tPA; 10% tPA powder in PLGA millicylinders with 3% Mg(OH)2,98.0±0.2%
same,one month release of tPA,tPA; 10% tPA powder in PLGA millicylinders without Mg(OH)2,77.1±2.6%
